Reference: US9040501B2, “Compositions and methods for treating cancer” (Eisai Inc., priority 2009, dated 2015)
Where two headings read alike, the source gives them in different places. Marks after values point to notes of the source that are not given here.

Legend:
[1] = Pharmacokinetics in mice after IV and PO administrations; type: in vivo, male BALB-c mice
Experimental: […]. All doses were prepared in phosphate buffered saline (PBS) and were administered at a volume of 5 mL/kg. Five mice per group were used in these studies. Blood samples were taken serially from the tail vein of each mouse at predetermined timepoints. Blood samples from all mice in each group were pooled together prior to processing for plasma. The pooled blood samples were spun down within 30-60 minutes after withdrawal and the plasma was harvested and frozen for assay. After preparation and extraction the samples were assayed by LC/MS/MS.

[2] = Stability in simulated gastric fluid at 37° C. (HPLC); type: physicochemical;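 as to % ER-876400 (peak retention time: 1.46 min): percent of total sample signal attributed to the analyte peak at each sampling time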
From the text: […]. See Kararli, T. T. Comparison of the GI anatomy, physiology, and biochemistry of humans and commonly used laboratory animals. BioPharm & DrugDispos. 16:351-380, 1995, which is hereby wholly incorporated by reference. The gastric pH in fasted monkeys has been reported to have a similar range of 1-3. See Kondo, H. et al. Characteristics of the gastric pH profiles of unfed and fed cynomolgus monkeys as pharmaceutical product development subjects. BioPharm & DrugDispos. 24:45-51, 2003, which is hereby wholly incorporated by reference.
Materials: Simulated gastric fluid (SGF) was prepared by mixing the following into 100 mL of HPLC grade (or purified) water: 200 mg of sodium chloride and 1.87 mL of a 37.52% HCl stock solution.
The HPLC analyses were conducted using a Waters UPLC solvent delivery system with Corona CAD detection. The HPLC Column (Waters Atlantis HHS T3 2.1×100 mm, 1.8 um) was maintained at 40° C. and preequilibrated with a solution containing 98% water and 2% acetonitrile. The temperature controlled auto-sampler was maintained at 37° C. The flow rate for the Water/MeCN mobile phase was 0.65 mL/min, with a gradient following sample injection (5 μL) as follows: […]
The Water/MeCN mobile phase was applied to the column with the above described flow rate and gradient and the HPLC chromatograms were collected. After 3.5 minutes, the column was reequilibrated with 98% water/2% MeCN for 1.5 minutes.

[3] = biological target: cytidine deaminase (CDA) (Homo sapiens (Human), UniProt P32320); assay: Effect of ER-876437 on the half-life of decitabine in the presence of CDA in Tris-HCl buffer at 37° C.; type: biochemical; settings: for half-life at 0.2 mM: pH 7.4, Estimated T1/2 of decitabine
Chain of cytidine deaminase (CDA) (P32320 whole entry): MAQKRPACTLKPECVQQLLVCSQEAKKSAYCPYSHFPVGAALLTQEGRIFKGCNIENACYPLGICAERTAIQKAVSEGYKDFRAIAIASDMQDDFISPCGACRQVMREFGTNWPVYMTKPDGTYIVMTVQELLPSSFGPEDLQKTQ
Experimental: The solvent delivery system employed an HPLC quaternary pump, low pressure mixing. An autosampler having a variable loop, 0.1 to 100 μL range and temperature controlled thermostat was used. […] Degassed HPLC grade water and degassed HPLC grade acetonitrile were used as solvents for the mobile phases. […] [table]

[4] = tested on: murine lymphoma L1210; settings: for Mean Survival (days) ± SD: twice a day (8 hours apart), 4 days
Experimental: Or, a stock of L1210 ascites in BSA solution was diluted to 1×10^4 cells/0.1 ml for use in the study mice.
(§1) The mice were prepared with intravenous (IV) injection of L1210 ascites (prepared as described above) one day prior to commencing the dosing. […] The total IV injection for all mice took about 50 minutes.
All solutions were stored on ice while dosing. Mice were dosed (intraperitoneally (IP) or per os (orally, PO)) twice a day (8 hours apart) for 4 consecutive days.
(§2) Dead mice were autopsied and observed for the presence of tumors in organs.

[5] = tested on: murine lymphoma L1210; settings: for Mean Liver wts (g) ± SD / Mean Spleen wts (g) ± SD: on autopsy; for % ILS (Increased Life Span): vs vehicle group
Experimental: Preparation of L1210 Cells: L1210 ascitic cells were prepared by passaging them in mice at least three times as follows. Each CD2F1 female mouse was intraperitoneally (IP) injected with about 10^5 L1210 ascitic cells. After one week, the mouse was sacrificed (asphyxiation via CO2). The mouse was placed on its back, its belly surface was cleaned with alcohol wipes, and a small incision was made into the peritoneal cavity. […] Diluted ascites (diluted 1:10 again) were counted on a hematocytometer and the number of cells per mL was calculated. About 10^5 L1210 cells were used for a subsequent passage for another mouse passage. Or, a stock of L1210 ascites in BSA solution was diluted to 1×10^4 cells/0.1 ml for use in the study mice.
as §1
Decitabine was prepared fresh twice a day, just prior to dosing. All solutions were stored on ice while dosing. Mice were dosed (intraperitoneally (IP) or per os (orally, PO)) twice a day (8 hours apart) for 4 consecutive days.
as §2
Preparation of study mice with IV injection of L1210 ascites took about 60 minutes. […] All solutions were stored on ice while dosing. Mice were dosed (IP or PO) twice a day (7 or 8 hours apart) for 4 consecutive days.

[6] = biological target: CDA (Homo sapiens (Human), UniProt P32320); settings: deamination by CDA; Chabot et al. 1983, Bouffard et al. 1993; cited from earlier work
Chain of CDA (P32320 whole entry): as above

[7] = male, BALB-c, mouse, plasma, 10 mg/kg IV
[8] = male, BALB-c, mouse, plasma, 10 mg/kg IV, read-out: Plasma concentrations
[9] = male, BALB-c, mouse, plasma, 10 mg/kg PO, read-out: Plasma concentrations
[10] = Veh/decitabine 0.1 mg/kg PO, on autopsy
[11] = Veh/decitabine 0.1 mg/kg PO (7 hours apart)
[12] = Veh/decitabine 0.1 mg/kg PO (8 hr.)

O=C1NCC=CCN1[C@@H]1O[C@H](CO)[C@@H](O)[C@H]1O [ER-876400, (Z)-3,4-dihydro-1-((2R,3R,4S,5R)-tetrahydro-3,4-dihydroxy-5-(hydroxymethyl)furan-2-yl)-1H-1,3-diazepin-2(7H)-one, reference compound]
AUC0-∞ ([1]; 10 mg/kg IV): 20999 ng·h/mL | AUC0-∞/D ([1]; 10 mg/kg IV): 2100 ng · hr/mL/D | AUCExtrap ([1]; 10 mg/kg IV): 10.3% | CL ([1]; 10 mg/kg IV): 8 mL/min/kg | dose-normalized exposures (AUC0-∞) ([1]; 10 mg/kg IV): 2100 ng·h/mL per mg/kg | t1/2 ([1]; 10 mg/kg IV): 16.1 h | Plasma concentrations ([1]; 10 mg/kg IV, 2 hr): 1753 ^a ng/mL | AUC(0-t) ([1]; 10 mg/kg PO): 13160 ng·h/mL | AUC(0-inf) [1, 7]: 21000 ng·h/mL | clearance [1, 7]: 8 mL/min/kg | half-life [1, 7]: 16.1 h | concentration at 0.167 hr [1, 8]: 19900 ng/mL | concentration at 0.5 hr [1, 8]: 10200 ng/mL | concentration at 1 hr [1, 8]: 4210 ng/mL | concentration at 4 hr [1, 8]: 495 ng/mL | concentration at 6 hr [1, 8]: 118 ng/mL | concentration at 8 hr [1, 8]: 59 ng/mL | concentration at 24 hr [1, 8]: 93 ng/mL | AUC(0-t) ([1]; male, BALB-c, mouse, plasma, 10 mg/kg IV, read-out: AUC0-t): 18800 ng·h/mL | Vd ([1]; male, BALB-c, mouse, plasma, 10 mg/kg IV, read-out: Vss): 3.2 L/kg | Cmax ([1]; male, BALB-c, mouse, plasma, 10 mg/kg PO): 7860 ng/mL | bioavailability ([1]; male, BALB-c, mouse, plasma, 10 mg/kg PO vs IV, calculated based on AUC0-t, read-out: F (bioavailability)): 69.9% | concentration at 0.167 hr [1, 9]: 7100 ng/mL | concentration at 0.5 hr [1, 9]: 7860 ng/mL | concentration at 1 hr [1, 9]: 4660 ng/mL | concentration at 2 hr ([1]; male, BALB-c, mouse, plasma, 10 mg/kg PO, 2 hr, read-out: Plasma concentrations): 1750 ng/mL | concentration at 4 hr [1, 9]: 320 ng/mL | concentration at 6 hr [1, 9]: 87 ng/mL | concentration at 8 hr [1, 9]: 44 ng/mL | concentration at 24 hr [1, 9]: 264 ng/mL | AUC(0-t) ([1]; male, BALB-c, mouse, plasma, 10 mg/kg PO, read-out: AUC0-t): 13200 ng·h/mL | % ER-876400 (peak retention time: 1.46 min) ([2]; SGF at 37° C., analysis time 0:00:30): 19.59% | % ER-876400 (peak retention time: 1.46 min) ([2]; SGF at 37° C., analysis time 0:06:08): 17.04% | % ER-876400 (peak retention time: 1.46 min) ([2]; SGF at 37° C., analysis time 0:11:45): 16.72% | % ER-876400 (peak retention time: 1.46 min) ([2]; SGF at 37° C., analysis time 0:17:23): 15.17% | % ER-876400 (peak retention time: 1.46 min) ([2]; SGF at 37° C., analysis time 0:23:01): 14.20% | % ER-876400 (peak retention time: 1.46 min) ([2]; SGF at 37° C., analysis time 0:28:38): 13.23% | % ER-876400 (peak retention time: 1.46 min) ([2]; SGF at 37° C., analysis time 0:34:16): 12.51% | % ER-876400 (peak retention time: 1.46 min) ([2]; SGF at 37° C., analysis time 0:39:54): 14.05% | % ER-876400 (peak retention time: 1.46 min) ([2]; SGF at 37° C., analysis time 0:45:33): 11.42% | % ER-876400 (peak retention time: 1.46 min) ([2]; SGF at 37° C., analysis time 0:51:10): 10.71% | % ER-876400 (peak retention time: 1.46 min) ([2]; SGF at 37° C., analysis time 0:56:48): 8.87% | % ER-876400 (peak retention time: 1.46 min) ([2]; SGF at 37° C., analysis time 1:02:27): 9.14% | % ER-876400 (peak retention time: 1.46 min) ([2]; SGF at 37° C., analysis time 1:08:07): 8.81% | % ER-876400 (peak retention time: 1.46 min) ([2]; SGF at 37° C., analysis time 1:13:46): 7.66% | % ER-876400 (peak retention time: 1.46 min) ([2]; SGF at 37° C., analysis time 1:19:23): 4.05% | % ER-876400 (peak retention time: 1.46 min) ([2]; SGF at 37° C., analysis time 1:25:01): 6.44% | % ER-876400 (peak retention time: 1.46 min) ([2]; SGF at 37° C., analysis time 1:30:38): 5.92% | % ER-876400 (peak retention time: 1.46 min) ([2]; SGF at 37° C., analysis time 1:36:16): 5.72% | % ER-876400 (peak retention time: 1.46 min) ([2]; SGF at 37° C., analysis time 1:41:53): 5.69% | % ER-876400 (peak retention time: 1.46 min) ([2]; SGF at 37° C., analysis time 1:47:32): 4.98% | % ER-876400 (peak retention time: 1.46 min) ([2]; SGF at 37° C., analysis time 1:53:10): 4.51% | % ER-876400 (peak retention time: 1.46 min) ([2]; SGF at 37° C., analysis time 1:58:49): 3.85% | % ER-876400 (peak retention time: 1.46 min) ([2]; SGF at 37° C., analysis time 2:04:28): 3.59% | % ER-876400 (peak retention time: 1.46 min) ([2]; SGF at 37° C., analysis time 2:21:24): 2.82% | % ER-876400 (peak retention time: 1.46 min) ([2]; SGF at 37° C., analysis time 2:49:37): 1.52% | % ER-876400 (peak retention time: 1.46 min) ([2]; SGF at 37° C., analysis time 3:17:48): 0.81% | % ER-876400 (peak retention time: 1.46 min) ([2]; SGF at 37° C., analysis time 3:23:28): 0.62% | % ER-876400 (peak retention time: 1.46 min) ([2]; SGF at 37° C., analysis time 3:46:00): 0.39% | % ER-876400 (peak retention time: 1.46 min) ([2]; SGF at 37° C., analysis time 3:51:38): 0.25% | % ER-876400 (peak retention time: 1.46 min) ([2]; analysis time 0:00:00, initial sample in water): 84.04% | time to degrade by 50% ([2]; simulated gastric fluid (pH 1.45) at 37° C.): less than 30 seconds

Nc1ncn([C@H]2C[C@H](O)[C@@H](CO)O2)c(=O)n1 [decitabine, 5-aza-2′-deoxycytidine]
Estimated T1/2 of decitabine ([3]; Decitabine in Tris-HCl buffer at 37° C. (absence of CDA)): 9 h | Estimated T1/2 of decitabine ([3]; Decitabine with CDA and ER-876437 in Tris-HCl buffer at 37° C.): 9 h | half-life at 0.2 mM ([3]; Tris-HCl buffer, Decitabine in Tris-HCl buffer at 37° C. (absence of CDA)): 9 h | half-life at 0.2 mM ([3]; cytidine deaminase (CDA) in Tris-HCl buffer, Decitabine with CDA and ER-876437 in Tris-HCl buffer at 37° C.): 9 h | half-life at 0.2 mM ([3]; cytidine deaminase (CDA) in Tris-HCl buffer, Decitabine with CDA in Tris-HCl buffer at 37° C.): ~0.383 h | Mean Survival (days) ± SD ([4]; Veh/decitabine 0.1 mg/kg IP): 13.4 ± 0.89 days | Mean Liver wts (g) ± SD [4, 10]: 2.17 ± 0.1 g | Mean Spleen wts (g) ± SD [4, 10]: 0.34 ± 0.04 g | Mean Survival (days) ± SD ([4]; Veh/decitabine 0.1 mg/kg PO): 11.2 ± 0.45 days | % ILS (Increased Life Span) ([4]; Veh/decitabine 0.1 mg/kg PO, vs vehicle group): 51.35% | difference in survival when dosed 7 or 8 hours apart ([5]; 0.1 mg/kg decitabine PO twice a day, 4 days): no difference in survival | Mean Survival (days) ± SD ([5]; Veh/decitabine 0.1 mg/kg IP, twice a day (7 hours apart), 4 days): 13.6 ± 0.55 days | Mean Liver wts (g) ± SD [5, 11]: 2.02 ± 0.31 g | Mean Spleen wts (g) ± SD [5, 11]: 0.36 ± 0.11 g | % ILS (Increased Life Span) [5, 11]: 47.50% | Mean Liver wts (g) ± SD [5, 12]: 1.81 ± 0.41 g | Mean Spleen wts (g) ± SD [5, 12]: 0.33 ± 0.06 g | Mean Survival (days) ± SD ([5]; Veh/decitabine 0.1 mg/kg PO (8 hr.), twice a day (8 hours apart), 4 days): 11.6 ± 0.55 days | % ILS (Increased Life Span) [5, 12]: 45.00% | Mean Survival (days) ± SD ([5]; Veh/decitabine 0.1 mg/kg PO, twice a day (7 hours apart), 4 days): 11.8 ± 0.84 days

Nc1ccn([C@H]2C[C@H](O)[C@@H](CO)O2)c(=O)n1 [deoxycytidine]
Km [6]: 19 ± 4 µM
